Experimental data taken from the NIST ThermoML archive (doi:10.1021/je2009208).
Numbers after ± are expanded uncertainties.

Key:
[1] = 298.15 K; 101.33 kPa; Liquid; Vibrating tube method
[2] = refractive index (Na D-line) (dimensionless); conditions: 293.15 K; 101.33 kPa; Liquid; Standard Abbe refractometry

refractive index [2]	SMILES	mass density [1] [kg/m3]
1.3333 ± 0.0008	O [water]	
1.3286 ± 0.0008	CO [methanol]	791.3 ± 0.2

SMILES	refractive index [2]	mass density [1] [kg/m3]
C=CC#N [acrylonitrile]	1.3908 ± 0.0008	800.6 ± 0.2
